The results in this text go back to patent publication US20190255023A1, “COMBINATION THERAPY COMPRISING A THIAZOLE AND A CORTICOSTEROID TO TREAT SKIN CONDITIONS” (priority 2016, published 2019).

This assay relates to immortalized keratinocyte cell line HaCaT. Kind of assay: Resazurin assay, HaCaT cell viability / proliferation. The assay is classed as cell-based, human. Particulars: for suboptimal dose of reduced viability: single agent dose response, HaCaT, 24 hours (FIG. 1). The procedure:
The spontaneously immortalized, nontumorigenic skin keratinocyte cell line HaCaT was maintained in DMEM supplemented with 5% (v/v) FBS, 0.3 mg/ml glutamine and 0.1 mg/ml gentamicin at 37° C. with 5% CO2 in a humidified atmosphere. Subculture using trypsin-EDTA was performed every 3-4 days with split ratio of 1:3-1:4 to ensure actively proliferating cells.
Cells were seeded in 96 well plates in fully supplemented medium at a density of 3000 cells per well. […] Next day, the cells were treated with cPLA2α inhibitor Compound B, Compound A, vitamin D analogue Calcipotriol and corticosteroid hormone receptor agonist Betamethasone dipropionate for 24 hours. Resazurin was added next day according to the manufacturer's instruction (RnD Systems, UK) and left to incubate for […] in incubator at 37° C. with 5% CO2 in a humidified atmosphere before fluorescence was read at 544 nm excitation and 590 nm emission wavelength. The cells were observed under the microscope to evaluate possible morphology changes and signs of stress before addition of resazurin. The experiments were performed in series of 8 wells per treatment and repeated 3 times.

Consider `CCCCCCCOc1ccc(OCC(=O)c2nc(C(=O)OC)cs2)cc1` [Compound A1], for which the “suboptimal dose of reduced viability” value was determined as 10 µM.

Consider `C[C@H]1C[C@H]2[C@@H]3CCC4=CC(=O)C=C[C@]4(C)[C@@]3(F)[C@@H](O)C[C@]2(C)[C@@]1(O)C(=O)CO` [Betamethasone], for which the “suboptimal dose of reduced viability” value was found to be 50 µM. For the same molecule, the “concentration up to which Hacat keratinocytes show resistance” value (single agent dose response (FIG. 1c), little effect seen attributed to solvent DMSO) is “up to 200 μM”.
